This passage reports IC50 results from patent US9006450B2 (Boehringer Ingelheim International GmbH, priority 2010, dated 2015).

pIC50: −log10 of the molar value.

Usually pIC50 stands for −log10 of the IC50, conventionally taken in molar units.

The target of this assay is T1, human ACC2 (Homo sapiens, UniProt O00763).
T1 construct: made in house; host or cells: insect cells (baculoviral expression system)
T1 sequence (O00763 129-2458 limits assumed): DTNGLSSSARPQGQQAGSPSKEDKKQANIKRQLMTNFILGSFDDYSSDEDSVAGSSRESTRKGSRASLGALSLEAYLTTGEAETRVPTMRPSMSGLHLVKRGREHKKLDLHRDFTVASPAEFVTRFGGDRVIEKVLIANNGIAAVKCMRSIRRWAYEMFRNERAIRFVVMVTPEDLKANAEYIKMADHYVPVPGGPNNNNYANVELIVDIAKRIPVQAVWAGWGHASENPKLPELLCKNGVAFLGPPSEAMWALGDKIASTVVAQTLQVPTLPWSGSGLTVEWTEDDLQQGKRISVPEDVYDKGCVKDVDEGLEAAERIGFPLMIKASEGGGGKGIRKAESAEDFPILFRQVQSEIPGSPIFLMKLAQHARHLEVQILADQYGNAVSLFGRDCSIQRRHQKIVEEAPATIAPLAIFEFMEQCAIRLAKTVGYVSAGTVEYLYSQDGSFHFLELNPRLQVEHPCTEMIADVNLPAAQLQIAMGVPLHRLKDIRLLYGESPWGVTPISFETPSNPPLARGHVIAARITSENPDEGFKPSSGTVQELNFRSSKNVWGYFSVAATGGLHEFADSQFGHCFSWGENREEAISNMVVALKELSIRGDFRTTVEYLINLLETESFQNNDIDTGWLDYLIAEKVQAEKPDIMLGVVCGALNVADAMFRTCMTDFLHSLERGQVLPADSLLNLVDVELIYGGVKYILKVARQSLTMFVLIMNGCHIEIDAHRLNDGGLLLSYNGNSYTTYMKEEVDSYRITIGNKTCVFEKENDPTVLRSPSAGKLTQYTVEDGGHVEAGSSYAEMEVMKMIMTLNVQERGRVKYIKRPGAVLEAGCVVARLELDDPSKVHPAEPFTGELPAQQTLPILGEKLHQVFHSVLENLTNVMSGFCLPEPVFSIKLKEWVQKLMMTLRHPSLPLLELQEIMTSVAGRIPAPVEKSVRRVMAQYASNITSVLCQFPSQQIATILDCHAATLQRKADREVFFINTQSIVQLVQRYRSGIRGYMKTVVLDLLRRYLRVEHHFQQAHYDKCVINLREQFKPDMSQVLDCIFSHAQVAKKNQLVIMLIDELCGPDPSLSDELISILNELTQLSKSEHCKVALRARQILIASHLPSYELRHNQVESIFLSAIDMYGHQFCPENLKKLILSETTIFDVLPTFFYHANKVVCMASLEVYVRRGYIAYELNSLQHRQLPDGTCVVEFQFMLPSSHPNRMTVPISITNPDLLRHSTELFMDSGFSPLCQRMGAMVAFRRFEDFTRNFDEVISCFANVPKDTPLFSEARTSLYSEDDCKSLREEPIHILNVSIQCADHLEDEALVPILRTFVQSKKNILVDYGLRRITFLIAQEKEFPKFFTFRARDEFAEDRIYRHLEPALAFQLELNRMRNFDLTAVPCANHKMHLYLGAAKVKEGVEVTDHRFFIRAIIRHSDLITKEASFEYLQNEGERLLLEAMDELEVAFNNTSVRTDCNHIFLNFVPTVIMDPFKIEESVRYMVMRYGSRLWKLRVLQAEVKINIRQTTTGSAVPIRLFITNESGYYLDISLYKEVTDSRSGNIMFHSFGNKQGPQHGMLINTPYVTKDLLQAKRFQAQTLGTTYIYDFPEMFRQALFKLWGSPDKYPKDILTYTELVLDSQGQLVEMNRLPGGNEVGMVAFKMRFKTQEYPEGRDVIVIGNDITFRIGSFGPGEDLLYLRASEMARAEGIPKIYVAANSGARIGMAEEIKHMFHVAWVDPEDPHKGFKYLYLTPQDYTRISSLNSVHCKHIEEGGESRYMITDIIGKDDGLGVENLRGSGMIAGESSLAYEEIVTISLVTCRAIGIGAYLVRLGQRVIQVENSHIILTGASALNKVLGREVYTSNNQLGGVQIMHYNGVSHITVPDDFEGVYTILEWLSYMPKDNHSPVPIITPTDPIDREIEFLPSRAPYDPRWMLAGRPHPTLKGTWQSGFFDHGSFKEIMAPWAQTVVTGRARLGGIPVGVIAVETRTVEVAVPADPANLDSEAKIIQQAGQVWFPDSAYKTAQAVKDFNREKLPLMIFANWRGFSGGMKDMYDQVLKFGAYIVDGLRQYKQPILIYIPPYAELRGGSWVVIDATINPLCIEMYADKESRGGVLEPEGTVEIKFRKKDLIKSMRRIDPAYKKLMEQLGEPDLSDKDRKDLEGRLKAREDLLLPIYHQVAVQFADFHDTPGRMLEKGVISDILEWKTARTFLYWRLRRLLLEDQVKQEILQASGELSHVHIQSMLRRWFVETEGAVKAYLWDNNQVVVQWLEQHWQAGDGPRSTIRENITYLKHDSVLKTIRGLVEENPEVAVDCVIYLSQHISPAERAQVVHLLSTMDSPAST
Briefly: ACC2 assay, spectrophotometric 384 well assay (NADH-linked, coupled lactate dehydrogenase/pyruvate kinase). Type of assay: biochemical. The note with it: ACC2 assay, hACC2 construct lacking 128 N-terminal amino acids, 25° C., 340 nm; read-out: IC50. The protocol: Spectrophotometric 384 Well Assay
Malonyl CoA formation by acetyl CoA carboxylases is stoichometrically linked to the consumption of ATP. ACC2 activity is measured in a NADH-linked kinetic method measuring ADP generated during the ACC reaction using a coupled lactate dehydrogenase/pyruvate kinase reaction.
For biological testing, a human ACC2 construct which lacks the 128 amino acids at the N-terminus for increased solubility (nt 385-6966 in Genbank entry AJ575592) is cloned. The protein is then expressed in insect cells using a baculoviral expression system. Protein purification is performed by anion exchange.
All compounds are dissolved in dimethyl sulfoxide (DMSO) to a concentration of 10 mM.
Assay reactions are then carried out in 384-well plates, with hACC2 in an appropriate dilution and at final assay concentrations (f.c.) of 100 mM Tris (pH 7.5), 10 mM trisodium citrate, 25 mM KHCO3, 10 mM MgCl2, 0.5 mg/mL BSA, 3.75 mM reduced L-glutathione, 15 U/mL lactate dehydrogenase, 0.5 mM phosphoenolpyruvate, 15 U/mL pyruvate kinase, compounds at different concentrations at final DMSO concentrations of 1%.
The enzymatic reaction is then started by addition of a mixture of NADH, acetyl Coenzyme A (both 200 μM f.c.) and ATP (500 uM f.c.). The decrease of the optical density (slope S) is then determined at 25° C. at a wavelength of 340 nm over 15 minutes in a spectrophotometric reader.
Each assay microtiter plate contains wells with vehicle instead of compound as controls for the non-inhibited enzyme (100% CTL; ‘HIGH’) and wells without acetyl-CoA as controls for non-specific NADH degradation (0% CTL; ‘LOW’).
The slope S is used for calculation of % CTL=(S(compound)−S('LOW'))/(S('HIGH')−S('LOW'))*100. Compounds will give values between 100% CTL (no inhibition) and 0% CTL (complete inhibition).
For IC50 value determination, the sample slope in the presence of the test compound after subtraction of the low controls (S(compound)−S('LOW')) are used.
An IC50 value is derived from the compound slopes at different dosages after subtraction of the low controls (S(compound)−S('LOW')) by non-linear regression curve fitting (equation y=(A+((B−A)/(1+((C/x)^D))))).
As for `C[C@H](NC(=O)N(C)C)c1ccc(C2CCN(c3ccc4c(c3)OCC(C)(C)CO4)CC2)cc1` [Example 1.58], the pIC50 is 6.92. Regarding `CC(=O)N[C@@H](C)c1ccc(C2CCN(c3ccc(OCC4CC4)nc3)CC2)cc1` [Example 1.59], the negative-log IC50 (pIC50) was 6.85. As for `CC(=O)N[C@@H](C)c1ccc(C2CCN(c3ccc(OC(C)C)nc3)CC2)cc1` [Example 1.60], the figure is 6.74; as for `CC(=O)N[C@@H](C)c1ccc(C2CCN(c3ccc4c(c3)OCC(C)(C)CO4)CC2)cc1` [Example 1.61], 6.68. As to `CC(=O)N[C@@H](C)c1ccc(C2CCN(c3ccc(OC4CCC4)nc3)CC2)cc1` [Example 1.62], the negative logarithm of the IC50 (pIC50) was 6.70. The value for `CC(=O)N[C@@H](C)c1ccc(C2CCN(c3ccc(O[C@@H]4CCOC4)cc3F)CC2)cc1` [Example 1.63] was 5.89; that for `CCCOc1ccc(N2CCC(c3ccc([C@H](C)NC(C)=O)cc3)CC2)c(F)c1` [Example 1.64] was 7.15. The value for `CC(=O)N[C@@H](C)c1ccc(C2CCN(c3ccc(O)cc3F)CC2)cc1` [Example 1.65] was 4.70; that for `CC(=O)N[C@@H](C)c1ccc(C2CCN(c3ccc4nc(C)sc4c3)CC2)cc1` [Example 1.66] was 6.38.

Take `CC(=O)N[C@@H](C)c1ccc(C2CCN(c3ccc4c(c3)OCO4)CC2)cc1` [Example 1.67]: the pIC50 is 6.44. With `CC(=O)N[C@@H](C)c1ccc(C2CCN(c3ccc4oc(=O)[nH]c4c3)CC2)cc1` [Example 1.68], the negative logarithm of the IC50 (pIC50) is 4.62. `CC(=O)N[C@@H](C)c1ccc(C2CCN(c3ccc4sccc4c3)CC2)cc1` [Example 1.69]: the negative-log IC50 (pIC50) was 5.40. With `CC(=O)N[C@@H](C)c1ccc(C2CCN(c3ccc4nc(C)n(C)c4c3)CC2)cc1` [Example 1.70], the pIC50 is 5.13. As for `CC(=O)N[C@@H](C)c1ccc(C2CCN(c3ccc4oc(-c5ccccc5)nc4c3)CC2)cc1` [Example 1.71], the figure is 7.10; as for `CC(=O)N[C@@H](C)c1ccc(C2CCN(c3ccc4c(c3)ncn4C)CC2)cc1` [Example 1.72], 4.63; as for `CC(=O)N[C@@H](C)c1ccc(C2CCN(c3cc4c(cc3C#N)OCO4)CC2)cc1` [Example 1.73], 5.47. As for `CC(=O)N[C@@H](C)c1ccc(C2CCN(c3ccc(OC(C)C)cc3F)CC2)cc1` [Example 1.74], the figure is 7.00; as for `CC(=O)N[C@@H](C)c1ccc(C2CCN(c3ccc4[nH]cc(C)c4c3)CC2)cc1` [Example 1.75], 5.66.

On to `CC(=O)N[C@@H](C)c1ccc(C2CCN(c3ccc4[nH]c(C)cc4c3)CC2)cc1` [Example 1.76], for which the pIC50 is 5.72. In the case of `C[C@H](NC(=O)C1CC1)c1ccc(C2CCN(c3cccc(OCC4CC4)c3)CC2)cc1` [Example 1.77], the negative logarithm of the IC50 (pIC50) was 6.05. As for `CC(C)Oc1cccc(N2CCC(c3ccc([C@H](C)NC(=O)C4CC4)cc3)CC2)c1` [Example 1.78], the figure is 5.47; as for `C[C@H](NC(=O)C1CC1)c1ccc(C2CCN(c3ccc(OCC4CC4)cc3F)CC2)cc1` [Example 1.79], 6.74; as for `C[C@H](NC(=O)N(C)C)c1ccc(C2CCN(c3cccc(OCC4CC4)c3)CC2)cc1` [Example 1.80], 6.28. The value for `CC(C)Oc1cccc(N2CCC(c3ccc([C@H](C)NC(=O)N(C)C)cc3)CC2)c1` [Example 1.81] was 6.55. As to `CCOc1ccc(N2CCC(c3ccc([C@H](C)NC(=O)C4CC4)cc3)CC2)c(F)c1` [Example 1.82], the pIC50 was 6.80. As for `CCCOc1ccc(N2CCC(c3ccc([C@H](C)NC(=O)C4CC4)cc3)CC2)c(F)c1` [Example 1.83], the figure is 7.00; as for `C[C@H](NC(=O)N(C)C)c1ccc(C2CCN(c3ccc(OCC4CC4)cc3F)CC2)cc1` [Example 1.84], 6.74. With `CCOc1ccc(N2CCC(c3ccc([C@H](C)NC(=O)N(C)C)cc3)CC2)c(F)c1` [Example 1.85], the negative logarithm of the IC50 (pIC50) is 6.85. As to `CCCOc1ccc(N2CCC(c3ccc([C@H](C)NC(=O)N(C)C)cc3)CC2)c(F)c1` [Example 1.86], the pIC50 was 6.68. The value for `C[C@H](NC(=O)C1CC1)c1ccc(C2CCN(c3ccc4c(c3)OCC(C)(C)CO4)CC2)cc1` [Example 1.87] was 5.92; that for `CC(=O)N[C@@H](C)c1ccc(C2CCN(c3cccc(OC4CCC4)c3)CC2)cc1` [Example 1.88] was 6.27. The value for `CCCOc1cccc(N2CCC(c3ccc([C@H](C)NC(C)=O)cc3)CC2)c1` [Example 1.89] was 6.41; that for `CCC(C)Oc1cccc(N2CCC(c3ccc([C@H](C)NC(C)=O)cc3)CC2)c1` (stereo partly drawn) [Example 1.90] was 6.64. On to `Cc1cc(OC2CC2)ccc1N1CCC(c2ccc([C@H](C)NC(=O)C3CC3)cc2)CC1` [Example 1.91], for which the negative-log IC50 (pIC50) was 6.22. With `CC(=O)N[C@@H](C)c1ccc(C2CCN(c3ccc(OC4CC4)cc3C)CC2)cc1` [Example 1.92], the pIC50 was 6.92. Take `COc1cc(OC2CC2)ccc1N1CCC(c2ccc([C@H](C)NC(=O)C3CC3)cc2)CC1` [Example 1.93]: the negative logarithm of the IC50 (pIC50) was 6.24.

As to `CC(=O)N[C@@H](C)c1ccc(C2CCN(c3ccc(OC4CC4)cc3OC3CC3)CC2)cc1` [Example 1.94], the pIC50 was 6.68. As for `COc1ccc(N2CCC(c3ccc([C@H](C)NC(C)=O)cc3)CC2)c(F)c1` [Example 1.96], the figure is 6.44. As for `COCCOc1ccc(N2CCC(c3ccc([C@H](C)NC(C)=O)cc3)CC2)c(F)c1` [Example 1.97], the figure is 6.28; as for `CC(=O)N[C@@H](C)c1ccc(C2CCN(c3cccc4c3OCCO4)CC2)cc1` [Example 1.98], 6.33. As for `COCCCOc1ccc(N2CCC(c3ccc([C@H](C)NC(C)=O)cc3)CC2)c(F)c1` [Example 1.99], the figure is 6.48; as for `CCOc1cnc(N2CCC(c3ccc([C@H](C)NC(C)=O)cc3)CC2)c(F)c1` [Example 1.100], 6.28. `CC(=O)N[C@@H](C)c1ccc(C2CCN(c3ccc(OCCC4CC4)cc3F)CC2)cc1` [Example 1.101]: the negative logarithm of the IC50 (pIC50) was 7.30. Turning to `CC(=O)N[C@@H](C)c1ccc(C2CCN(c3ncc(OCC4CC4)cc3F)CC2)cc1` [Example 1.104], the negative logarithm of the IC50 (pIC50) is 6.70. `CCCOc1cnc(N2CCC(c3ccc([C@H](C)NC(C)=O)cc3)CC2)c(F)c1` [Example 1.105]: the negative-log IC50 (pIC50) was 6.62. `COc1cc(OC2CC2)ccc1N1CCC(c2ccc([C@H](C)NC(=O)N(C)C)cc2)CC1` [Example 1.106]: the negative logarithm of the IC50 (pIC50) is 6.77. `C[C@H](NC(=O)N(C)C)c1ccc(C2CCN(c3ccnc(Oc4cncnc4)c3)CC2)cc1` [Example 1.107]: the negative-log IC50 (pIC50) was 6.28.

Turning to `C[C@H](NC(=O)C1CC1)c1ccc(C2CCN(c3ccnc(Oc4cncnc4)c3)CC2)cc1` [Example 1.108], the pIC50 is 6.03. The value for `CC(=O)N[C@@H](C)c1ccc(C2CCN(c3ccc(OCCn4ccnc4)cc3)CC2)cc1` [Example 1.109] was 5.51.

As for `CC(=O)N[C@@H](C)c1ccc(C2CCN(c3ccc(Oc4cncnc4)nc3)CC2)cc1` [Example 1.110], the pIC50 was 5.35. The value for `C[C@H](NC(=O)N(C)C)c1ccc(C2CCN(c3ccc(OC4CC4)cc3)CC2)cc1` [Example 1.112] was 6.68. In the case of `COC(=O)N[C@@H](C)c1ccc(C2CCN(c3ccc(OC4CC4)cc3)CC2)cc1` [Example 1.113], the negative-log IC50 (pIC50) is 6.85. The value for `CC(C)COc1ccc(N2CCC(c3ccc([C@H](C)NC(=O)C4CC4)cc3)CC2)cc1` [Example 1.114] was 6.89. Turning to `CCCOc1ccc(N2CCC(c3ccc([C@H](C)NC(=O)C4CC4)cc3)CC2)c(C#N)c1` [Example 1.115], the negative-log IC50 (pIC50) is 6.96. The value for `CCCOc1ccc(N2CCC(c3ccc([C@H](C)NC(=O)C4CC4)cc3)CC2)c(OC)c1` [Example 1.116] was 6.11; that for `C[C@H](NC(=O)C1CC1)c1ccc(C2CCN(c3ccc(OC4CCCC4)cc3)CC2)cc1` [Example 1.117] was 7.22; that for `CC(C)COc1ccc(N2CCC(c3ccc([C@H](C)NC(=O)C4CC4)cc3)CC2)nc1` [Example 1.118] was 6.92. As for `CC(C)Oc1ccc(N2CCC(c3ccc([C@H](C)NC(=O)C4CC4)cc3)CC2)cc1` [Example 1.119], the figure is 6.59; as for `CC(C)Oc1cc(N2CCC(c3ccc([C@H](C)NC(=O)C4CC4)cc3)CC2)ccn1` [Example 1.120], 6.60. Consider `CCOc1ccc(N2CCC(c3ccc([C@H](C)NC(=O)C4CC4)cc3)CC2)c(OCC)c1` [Example 1.121], for which the pIC50 was 5.09.
